The text below walks through data of patent US20260242390A1, “TOTAL SYNTHESES OF PORTIMINE A AND ANALOGUES THEREOF AS SMALL MOLECULE MODULATORS OF NMD3” (priority 2023, published 2026).

One experiment has as its system MC38 colon carcinoma. Nature of the experiment: MC38 Syngeneic Tumor Xenograft Model. The following applies: 0.3 or 1.0 mg/kg, i.p. In kind it is in vivo, mouse. How it is done: FIG. 4. Validation of NMD3 as target of Portimine A by Chemo-precipitation (ChP). Portimine A mouse pharmacokinetic properties and fast acting in vitro cell-based target engagement properties based on compound wash-out. (A) Pharmacokinetic studies of mouse intraperitoneal (i.p.) and oral (p.o.) administration for portimine (n=3). […] Impact of PA [0.3 or 1 mg/kg intraperitoneally] on MC38 tumor growth in WT mice (n=6). (C) Kaplan-Myer survival curve of WT MC38 tumor-bearing mice (n=6) after treatment with PA as described in (D). Mice were euthanized when tumor area exceeded 2000 mm^3. Statistical analysis was performed using ANOVA analysis followed by multiple comparisons test, * p≤0.05. Treatment condition: Jurkat (60 M per condition); PA-DA/ePA-DA concentration: 0.5 uM, PA or ePA: 5 uM; Incubate with probe with or without competitors (PA, ePA) for 30 min; UV irradiated for 20 min. (0.5 uM PA-DA add a no-UV condition); Standard pulldown & biotin-enrichment and western blot analysis (Elute condition: 2× sample buffer+500 uM biotin, boil for 20 mins); Primary antibody NMD3 (ProteinTech, 1:150), Actin (BioRad, 1:10000).
FIG. 9. […] (A) Systemic Portimine A in MC38 Syngeneic Tumor Xenograft Model; and (B) Systemic Portimine A in HT-1080 Tumor Xenograft Model. […]

Another experiment concerns B16-F10. As to the kind of experiment: Broad cell line profiling, B16-F10. The following applies: B16-F10, Mouse Melanoma; read-out: PA IC50. In kind it is cell-based. From the text: • A panel of human and mouse cancer cell types used to assess the breadth of PA activity, including multiple therapy resistant metastatic mesenchymal tumor cell lines and primary glioblastoma patient-derived metastatic stem/tumor initiating cell populations.

As a reminder, the IC50 is the midpoint of a concentration-inhibition curve. As for `C=CC1=C[C@@H]2[C@@H]3O[C@]4(CC[C@H](O4)C(C)C[C@@H](O)C3=O)CC(O)C3=NCC[C@@]32CC1` (some centres unmarked) [PA, portimine A], the “anti-tumor activity, MC38 colon carcinoma syngeneic model” value with MC38 colon carcinoma was “Potent anti-tumor activity”. Moreover, the IC50 in the experiment with B16-F10 amounted to 0.75 nM.
